According to publication PMC10686989, “Distinct activation mechanisms of β-arrestin-1 revealed by ^19F NMR spectroscopy” (Nature Communications, 2023):

Legend:
[1] = system: βarr1-3Q (K232Q/R236Q/K250Q); assay: 1D 19F NMR of PIP2-binding deficient mutant; assay type: biochemical, human; conditions: H295C site
Protocol: The ^19F-labeled βarr1 was diluted to 50 μM using buffer E before incubation with peptides or PIP2. The V2Rpp, β2AR-GRK2pp/GRK6pp or PIP2 were added at 1.2-fold, 3-fold, and 1.5-fold molar ratio excess to the protein, respectively. For the membrane-bound sample, the reconstituted nanodiscs were added at twofold molar ratio of βarr1. All complexes were incubated at 25 °C for 1 h, and the freshly prepared samples were immediately subjected to ^19F NMR experiments.
NMR samples were prepared in buffer E to a final volume of 140 μL, supplemented with 1 mM DTT, 10% D2O for field lock, and 1 μM sodium trifluoroacetate (STFA) as the internal chemical shift reference. All samples were sterile-filtered and loaded into sterile 3 mm NMR microtubes to prevent microbial contamination. Final protein concentrations vary for different constructs, depending on their expression levels and stabilities, but all in the range of 20–50 μM.
(§1) All ^19F NMR spectra were recorded at 298 K using a Bruker AVANCE III HD 800 MHz spectrometer equipped with a ^1H-^19F/^13C/^15N TCI triple resonance cryogenic probe. […] The carrier frequency was set to −68.0 ppm and the spectra were recorded with 4k points and a spectral width of 15,000 Hz. […]
(§2) All NMR data were analyzed using the MestraNova 12.0.0 software (https://mnova.pl). […] Peak intensities, integrated peak area and linewidths were determined based on the fitted results.

[2] = system: βarr1-ΔCT (residues 1–382); assay: 19F NMR (1D and CEST) of CT-truncated construct; assay type: biochemical, human; conditions: E206C site; PIP2 added to pre-activated ΔCT state
Excerpt: (§3) The cysteine-less mutant (C59V/C125S/C140L/C150V/C242V/C251V/C269S) of the long splice variant of human βarr1 was used for introduction of single site cysteine mutation for ^19F labeling. The sequence was codon-optimized for expression in Escherichia coli and cloned into a pET-28a(+) vector (Novagen), with an N-terminal 6xHis-tag, followed by an SSG linker and a thrombin cleavage site. All mutants, including the 1–382 (βarr1-ΔCT) and 1–395 truncation constructs, were generated using site-directed mutagenesis kits (Thermo Fisher). Primer sequences for generating the mutants are listed in Supplementary Table 4.
(§4) The ^19F-labeled βarr1 was diluted to 50 μM using buffer E before incubation with peptides or PIP2. The V2Rpp, β2AR-GRK2pp/GRK6pp or PIP2 were added at 1.2-fold, 3-fold, and 1.5-fold molar ratio excess to the protein, respectively. […]
as §1
(§5) All NMR data were analyzed using the MestraNova 12.0.0 software (https://mnova.pl). […] Peak intensities, integrated peak area and linewidths were determined based on the fitted results. […]

[3] = target: T1, βarr1 (Homo sapiens, UniProt P49407, C125S/C140L/C150V/C242V/C251V/C269S/C59V/D390C); assay: 19F NMR titration of V2Rpp or PIP2 into βarr1 (activation); assay type: biochemical; conditions: V2Rpp up to 1.2:1, PIP2 up to 3.0:1 molar ratio
T1 construct: we started from a full-length functional cysteine-less βarr1 construct[20]; 6xHis-tag with SSG linker and thrombin cleavage site (N, cleaved yes); made in house; host or cells: E. coli BL21(DE3)
T1 sequence (P49407 whole entry C59V/C125S/C140L/C150V/C242V/C251V/C269S/D390C): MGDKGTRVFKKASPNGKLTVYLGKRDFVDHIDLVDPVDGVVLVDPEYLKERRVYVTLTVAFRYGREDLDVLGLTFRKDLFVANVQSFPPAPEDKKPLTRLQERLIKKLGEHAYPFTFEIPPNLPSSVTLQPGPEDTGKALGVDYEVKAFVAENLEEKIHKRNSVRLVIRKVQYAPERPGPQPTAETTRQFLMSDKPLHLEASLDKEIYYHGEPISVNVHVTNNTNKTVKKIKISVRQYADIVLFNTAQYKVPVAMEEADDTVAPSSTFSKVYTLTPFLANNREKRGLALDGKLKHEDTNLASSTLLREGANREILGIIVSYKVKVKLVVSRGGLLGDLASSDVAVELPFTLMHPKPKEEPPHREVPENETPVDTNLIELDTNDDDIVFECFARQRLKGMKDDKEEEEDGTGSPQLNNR
Protocol: All ^19F NMR spectra were recorded at 298 K using a Bruker AVANCE III HD 800 MHz spectrometer equipped with a ^1H-^19F/^13C/^15N TCI triple resonance cryogenic probe. All data were acquired and processed using the Bruker Topspin 4.2.0 software. For all 1D ^19F NMR experiments, the traditional one-pulse sequence was used. The carrier frequency was set to −68.0 ppm and the spectra were recorded with 4k points and a spectral width of 15,000 Hz. Because accurate calibration of the 90° excitation pulse length for individual samples is not practical due to the low protein concentrations, we used the 90° pulse length calibrated from a standard sample (0.05% Trifluoro-toluene in CDCl3) for all βarr1 samples. […] Therefore, all the ^19F experiments were conducted with a 100 ms relaxation delay, and acquired using 100,000–200,000 scans depending on the sample condition, yielding a signal-to-noise (S/N) ratio of approximately 50. […]
as §5
(c) Estimation of the V2Rpp-βarr1 binding affinity based on peak intensity changes of the D390C site of βarr1 titrated with V2Rpp. […] The values of θ were calculated as by θ = V-,⁄(V-. + V-,), in which VS1 and VS2 correspond to the volume integrals of the peaks of S1 and S2 states, respectively. […]

[4] = system: βarr1-1-395; assay: 1D 19F NMR of distal CT-deleted construct; assay type: biochemical, human; conditions: H295C site; PIP2
Excerpt: as §3, §4, §1, §2

CCCCCCCC(=O)OC[C@H](COP(=O)(O)O[C@@H]1[C@H](O)[C@H](O)[C@@H](OP(=O)(O)O)[C@H](OP(=O)(O)O)[C@H]1O)OC(=O)CCCCCCC [PIP2, diC8-PI(4,5)P2]
Transition to S2 state [1]: such spectral changes were not observed
Active S2 conformation [2]: increases the active S2 conformation
Activation of βarr1 at D390C on titration ([3]; D390C site): minimally affects
Activation of βarr1 at H295C on titration ([3]; H295C site): partially activates
Transition to S2 state [4]: promotes the S2 conformation to an extent comparable with full-length βarr1
